The record followed here is patent US9440941B2, “Substituted chroman-6-yloxy-cycloalkanes and their use as pharmaceuticals” (SANOFI, priority 2013, dated 2016).

Where a name gives a salt, the structure may show the parent alone.

The target in one assay is T1, human NCX1 (Homo sapiens, UniProt P32418).
T1 construct: expressed in transfected cells
In words: Inhibition of Ca2+ efflux out of cells (NCX1 forward mode), FLIPR calcium assay. Format: cell-based. The conditions noted are these: CHO cells stably expressing human NCX1; Ca2+ efflux after Ionomycin; read-out: NCX1fw IC50 (inhibition of NCX1 in forward mode). The text has this:
The sodium/calcium exchanger NCX1 can transport calcium ions and sodium ions through the cell membrane. The transport is an exchange of Ca^2+ and Na^+ in two directions depending on membrane potential and ion gradients. At the first direction, named “forward mode” or “calcium export mode”, Ca^2+ is transported out of the cell and Na^+ is transported into the cell. At the other direction, named “reverse mode” or “calcium import mode”, the transport directions are vice versa. The effect of the compounds of the invention on NCX1 was determined in CHO cells stably expressing human NCX1 (gene symbol SLC8A1; cf. WO 2009/115238). The assay is based on the monitoring of intracellular Ca^2+ concentrations using a calcium-sensitive fluorescence dye which is detected by means of a FLIPR device (Fluorimetric Imaging Plate Reader, Molecular Devices).
Assay Technology—Forward Mode
The assay is based on the monitoring of intracellular Ca^2+ concentrations using the PBX Calcium Assay Kit from BD (Becton, Dickinson and Company) with calcium indicator dye 51-9000177BKa (BD, 640177). CHO cells expressing NCX1 were loaded with the dye, and after a preincubation period with the test compound, lonomycin (Calbiochem, 407950) was added. lonomycin is an ionophor for Ca^2+ ions mediating an increase of intracellular Ca^2+ ions. Consequently, intracellular Ca^2+ ions are exchanged against extracellular Na^+ ions (Ca^2+ efflux, forward mode). The decrease of intracellular Ca^2+ ions was detected by measuring the fluorescence of the calcium indicator dye at a wavelength of 520 nm by a FLIPR device.
Briefly, similarly as for the reverse mode, for the forward mode transport assay 18000 cells per well were seeded into a 96 well microplate (Corning COSTAR 3904) and incubated overnight in culture medium (cf. above). A total volume of 100 μl medium per well was used. For the preparation of the FLIPR assay, the culture medium was removed from the plates and 100 μl of assay buffer (133.8 mM NaCl (Sigma, S5886); 4.7 mM KCl (Sigma, P3911); 1.25 mM MgCl2 (Merck, 1.05833.0250); 3.5 mM CaCl2 (Merck, 1.02083.0250); 5 mM glucose (Sigma, G7021); 10 mM Hepes (Sigma, H4034); pH 7.4)) were added to each well in a washing step. Assay buffer was removed, and 100 μl of a solution of the test compound in assay buffer in different concentrations were added into the wells. Further, 100 μl of dye solution (0.09% (v/v) calcium indicator dye, 9.1% (v/v) signal enhancer (from PBX Calcium Assay Kit); in assay buffer) were added into each well. The plates were incubated in the dark at room temperature for 60 min. Meanwhile a 10 μM solution of lonomycin in assay buffer (additionally containing 0.05% fetal calf serum (cf. above); 4° C.) was prepared and stored in the wells of a 96 well microplate (96 well microplate, polypropylene, U-shape (Greiner Bio-One, 650201)). The fluorescence monitoring was performed at 60 measuring points with measurement intervals of 2 sec. After the fifth measuring point, 50 μl of the lonomycin solution were added to each well of the assay plate to give a final lonomycin concentration of 2 μM. For the determination of the IC50 values the minimal fluorescence value was subtracted from the maximal fluorescence value for the fifteenth to fifty-fifth measuring points. The calculation of the IC50 values via the percentage inhibitions of Ca^2+ efflux out of cells (forward mode) effected by the test compound was performed in Biost@t Speed 2.0. “NCX1fw IC50” in Table 2 means the IC50 value (in μM (micromol/liter)) for inhibition of NCX1 in forward mode.
Regarding `Cc1ccccc1C1CCc2cc(O[C@H]3CC[C@@H](C(=O)NCCO)CC3)ccc2O1` (single isomer, unassigned) [Example 269, cis-4-(2-o-tolyl-chroman-6-yloxy)-cyclohexanecarboxylic acid (2-hydroxy-ethyl)-amide], the half-inhibitory concentration (IC50) was determined as 3100 nM.
As for `Cc1ccccc1C1CCc2cc(O[C@H]3CC[C@@H](C(=O)NCCO)CC3)ccc2O1` (single isomer, unassigned) [Example 270, cis-4-(2-o-tolyl-chroman-6-yloxy)-cyclohexanecarboxylic acid (2-hydroxy-ethyl)-amide], the IC50 was found to be 1000 nM.
On the same count and under the same terms, then `Cc1ccccc1[C@H]1CCc2cc(O[C@H]3CC[C@H](C(=O)NCCO)CC3)ccc2O1` [Example 267, trans-4-((R)-2-o-tolyl-chroman-6-yloxy)-cyclohexanecarboxylic acid (2-hydroxy-ethyl)-amide], with 4400 nM.

In the next assay the target is T1, human NCX1. In words: Inhibition of Ca2+ influx into cells (NCX1 reverse mode), FLIPR Fluo-4 assay. Format: cell-based. The conditions noted are these: inhibition of NCX1 in reverse mode (Ca2+ influx into cells); read-out: NCX1rv IC50. Put shortly: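 Ca2+ influx via reverse-mode exchange was evoked with gramicidin (20 µM final) after 45 min compound exposure at 16 °C in stably transfected CHO cells. Fluo-4 signal (520 nm) was followed on FLIPR at 2 s intervals. Max–min fluorescence gave percentage inhibition, from which IC50 was calculated.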
On to `Cc1ccccc1C1CCc2cc(O[C@H]3CC[C@@H](C(=O)NCCO)CC3)ccc2O1` (single isomer, unassigned) [Example 269, cis-4-(2-o-tolyl-chroman-6-yloxy)-cyclohexanecarboxylic acid (2-hydroxy-ethyl)-amide], for which the IC50 came to 400 nM.
As for `Cc1ccccc1C1CCc2cc(O[C@H]3CC[C@@H](C(=O)NCCO)CC3)ccc2O1` (single isomer, unassigned) [Example 270, cis-4-(2-o-tolyl-chroman-6-yloxy)-cyclohexanecarboxylic acid (2-hydroxy-ethyl)-amide], the IC50 turned out to be 100 nM.
Still for that read-out and setting: in the case of `Cc1ccccc1[C@H]1CCc2cc(O[C@H]3CC[C@H](C(=O)NCCO)CC3)ccc2O1` [Example 267, trans-4-((R)-2-o-tolyl-chroman-6-yloxy)-cyclohexanecarboxylic acid (2-hydroxy-ethyl)-amide] it was 200 nM; in that of `O=C(NCc1ccno1)C1CCC(Oc2ccc3c(c2Cl)CCC(c2ccccc2)O3)CC1` (centres unmarked) [compound 292], 1900 nM; in that of `CCn1nccc1CNC(=O)C1CCC(Oc2ccc3c(c2Cl)CCC(c2ccccc2)O3)CC1` (centres unmarked) [compound 293], 4700 nM.
Same read-out and setting: in the case of `COc1cccc(C2CCc3cc(OC4CCC(C(=O)NCCO)CC4)ccc3O2)c1F` (centres unmarked) [compound 294] it was 1300 nM.
Still for that read-out and setting: in the case of `COc1cccc(C2CCc3cc(OC4CCC(C(=O)NCc5ccno5)CC4)ccc3O2)c1F` (centres unmarked) [compound 295] it was 1100 nM.
In the case of `CCn1nccc1CNC(=O)C1CCC(Oc2ccc3c(c2)CCC(c2cccc(OC)c2F)O3)CC1` (centres unmarked) [compound 296], the IC50 turned out to be 900 nM.
On the same count and under the same terms, in the case of `CCn1nccc1CNC(=O)C1CCC(Oc2ccc3c(c2)CC(C)C(c2ccccc2)O3)CC1` (centres unmarked) [compound 297] it was 500 nM; in that of `CC1Cc2cc(OC3CCC(C(=O)NCc4ccno4)CC3)ccc2OC1c1ccccc1` (centres unmarked) [compound 298], 1400 nM.
As for `CC1Cc2cc(OC3CCC(C(=O)NCCO)CC3)ccc2OC1c1ccccc1` (centres unmarked) [compound 299], the IC50 was 1900 nM.
On the same count and under the same terms, then `CCn1nccc1CNC(=O)C1CCC(Oc2ccc3c(c2)CCC(c2cccc(F)c2OC)O3)CC1` (centres unmarked) [compound 300], with 400 nM; and `COc1c(F)cccc1C1CCc2cc(OC3CCC(C(=O)NCc4ccno4)CC3)ccc2O1` (centres unmarked) [compound 301], with 200 nM.
For `COc1c(F)cccc1C1CCc2cc(OC3CCC(C(=O)NCCO)CC3)ccc2O1` (centres unmarked) [compound 302], the IC50 is 400 nM.
Still for that read-out and setting: in the case of `N[C@@H]1CC[C@@H](Oc2ccc3c(c2)CCC(c2ccccc2)O3)C1` (some centres unmarked) [compound 304, hydrochloride] it was 600 nM; in that of `NCC1CCC(Oc2ccc3c(c2)CCC(c2ccccc2)O3)C1` (centres unmarked) [compound 305, hydrochloride], 1500 nM.
Still for that read-out and setting: then “N-(1,3-Dimethylbutyl)-4-(2-phenylchroman-6-yloxy)-cyclohexylamine [compound 141]”, with 1000 nM.
“N-(2-Ethylsulfanylethyl)-4-(2-phenylchroman-6-yloxy)-cyclohexylamine [compound 131]”: the IC50 was 600 nM.
On the same count and under the same terms, in the case of “N-(2-Hydroxy-1,1-dimethyl-ethyl)-4-(2-phenylchroman-6-yloxy)-cyclohexanecarboxamide [compound 151]” it was 1300 nM; in that of “N-(2-Methoxyethyl)-4-(2-phenylchroman-6-yloxy)-cyclohexylamine [compound 132]”, 700 nM.
The same measure, in the same setting: then “N-(2-tert-Butoxyethyl)-4-(2-phenylchroman-6-yloxy)-cyclohexylamine [compound 135]”, with 800 nM; and “N-(3,3-Dimethylbutyl)-4-(2-phenylchroman-6-yloxy)-cyclohexylamine [compound 152]”, with 1400 nM.
Same read-out and setting: then “N-(3-Hydroxypropyl)-4-(2-phenylchroman-6-yloxy)-cyclohexanecarboxamide [compound 150]”, with 900 nM.
For the compound “N-(3-Methylbutyl)-4-(2-phenylchroman-6-yloxy)-cyclohexylamine [compound 130]”, the IC50 is 800 nM.
Still for that read-out and setting: in the case of “N-((S)-2-Methoxy-1-methyl-ethyl)-4-(2-phenylchroman-6-yloxy)-cyclohexylamine [compound 140]” it was 1400 nM; in that of “N-But-3-enyl-4-(2-phenylchroman-6-yloxy)-cyclohexylamine [compound 148]”, 900 nM; in that of “N-Cyclobutyl-4-(2-phenylchroman-6-yloxy)-cyclohexylamine [compound 142]”, 600 nM.
In the case of “N-Cyclopentyl-4-(2-phenylchroman-6-yloxy)-cyclohexylamine [compound 143]”, the IC50 was found to be 800 nM.
Same read-out and setting: then “N-Pentyl-4-(2-phenylchroman-6-yloxy)-cyclohexylamine [compound 144]”, with 600 nM; and “N-[1-(Methoxymethyl)propyl]-4-(2-phenylchroman-6-yloxy)-cyclohexylamine [compound 133]”, with 1000 nM.
As for “N-[2-(1,1-Dioxo-thiomorpholin-4-yl)ethyl]-4-(2-phenylchroman-6-yloxy)-cyclohexylamine [compound 138]”, the IC50 is 600 nM.
On the same count and under the same terms, then “N-[2-(1-Isopropylpiperidin-4-yl)ethyl]-4-(2-phenylchroman-6-yloxy)-cyclohexylamine [compound 136]”, with 1800 nM.
